We go through 2 compounds from paper PMC8143184, “Exploring the Diversity of Fungal DyPs in Mangrove Soils to Produce and Characterize Novel Biocatalysts” (Journal of Fungi, 2021).

Read-outs that look alike come from different tables or passages of the source.

Experiment [1] deals with DyP1 (OFU1; recombinant DyP1 from mangrove soils). The conditions noted are these: read-out: Parameters / Km; H2O2 0.25 mM co-substrate; 100 mM citrate-phosphate pH 3; 30 °C.
Experiment [2] relates to T1, DyP1 (OFU1; recombinant DyP1 from mangrove soils).
T1 construct: codon-optimized synthetic cDNA from environmental cDNA capture; secreted from Pichia pastoris X33 (pPICZalphaA), C-terminal His6 tag; expected 55 kDa, about 70 kDa glycosylated on SDS-PAGE
The experiment is described as follows: dye decolorization at […] nm, Michaelis-Menten fit. In kind it is biochemical. The conditions noted are these: H2O2 0.25 mM co-substrate; 100 mM citrate-phosphate pH 2.6; 30 °C; read-out: Parameters / Km.

With `CCn1c(=NN=c2sc3cc(S(=O)(=O)O)ccc3n2CC)sc2cc(S(=O)(=O)O)ccc21` [ABTS], in experiment [1], the Km worked out at 651 ± 81 µM. Consider `Nc1c(S(=O)(=O)O)cc(Nc2cccc(S(=O)(=O)CCOS(=O)(=O)O)c2)c2c1C(=O)c1ccccc1C2=O` [RB19], for which, in experiment [2], the Km came to 1500 ± 878 µM.
